Patent publication EP4813993A1, “COMPOUND, PREPARATION METHOD THEREFOR, AND USE THEREOF” (Sichuan Kelun Pharmaceutical Research Institute Co., Ltd., priority 2023, dated 2025)

Tests used:
incision pain model = assay: Incision pain model in ICR mice, Von Frey test; format: in vivo; details: Mean + SEM, n = 10; for PWT 50% value (g) Post-surgery, Preadministration: baseline before administration; for PWT 50% value (g) Pre-surgery: baseline before surgery; for PWT 50% value (g) 0.5 h: 0.5 h after administration; for PWT 50% value (g) 2 h: 2 h after administration; for PWT 50% value (g) 4 h: 4 h after administration
Summary of the method: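 Male ICR mice (28-35 g) received a plantar hind-paw incision; next day, animals meeting baseline were randomized on 50% PWT (n=10/group). Single dose in 5% DMSO/10% Cremophor EL/85% saline, double-blind; 50% PWT by von Frey before and 0.5, 2 and 4 h after dosing; saline model control.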

[1] = tested on: spinal nerve ligation model (SNL); assay: Rat spinal nerve ligation model (SNL), Von Frey test; format: in vivo, SD rats; details: for PWT 50% value (g) Post-surgery, Preadministration / PWT 50% value (g) Pre-surgery / PWT 50% value (g) Time 0.5 h / PWT 50% value (g) Time 2 h / PWT 50% value (g) Time 4 h / PWT 50% value (g) Time 6 h / PWT 50% value (g) Time 8 h / PWT 50% value (g) AUC0-8h: SD rats SNL, Mean + SEM, n = 10; for PWT 50% value (g) Post-surgery, Preadministration: baseline before administration; for PWT 50% value (g) Pre-surgery: baseline before surgery; for PWT 50% value (g) Time 0.5 h: 0.5 h after administration; for PWT 50% value (g) Time 2 h: 2 h after administration; for PWT 50% value (g) Time 4 h: 4 h after administration; for PWT 50% value (g) Time 6 h: 6 h after administration; for PWT 50% value (g) Time 8 h: 8 h after administration
Description: Experimental Example 8: Pharmacodynamic effect study of compounds in rat spinal nerve ligation model (SNL) Experimental animals: SD rats, male, 180-220 g.
Compound preparation: 5% (final preparation volume) of DMSO was added to dissolve the test compound, and then 10% (final preparation volume) of Cremophor EL and 85% Saline were sequentially added.
SD rats were anesthetized with isoflurane via inhalation. Each rat was placed in a prone position, and the hair at the surgical site was shaved locally. The surgical site was disinfected with alcohol and iodophor. Under sterile conditions, a 3-4 cm longitudinal incision was made at the level of the lower lumbar/upper sacrum to expose the left paravertebral muscles. Using small sharp-blunt scissors, the paravertebral muscles were bluntly dissected, and the transverse process of L6 was excised. The L4 and L5 spinal nerves were isolated and exposed, and the L5 spinal nerve was ligated with 6-0 silk sutures. The surgical wound was treated with ceftriaxone for anti-inflammation and infection prevention. The muscles and skin were sutured layer by layer, followed by disinfection with iodophor. After the surgery, the animals were placed on a warm electric blanket for heat preservation and returned to the cages for rearing after complete recovery from anesthesia. Postoperative behavioral observations were performed.
2. Administration and test
The Von Frey test was performed once before the surgery. On the 5th and 6th days after surgery, paw-lifting training was performed once each day. Animals with a baseline of 2-5 g were selected for enrollment and grouped based on the 50% PWT values, with 10 animals per group. The next day, a single dose was administered in a blinded manner. The 50% PWT of the animals was measured separately before administration (baseline) and at 0.5 h, 2 h, 4 h, 6 h, or 8 h after administration. The model control group was given normal saline, while the compound groups were given the compounds according to the administration doses in the table below.

For `COc1c(C2CC(C)(C(F)(F)F)SC2C(=O)Nc2ccnc(C(N)=O)c2)ccc(F)c1F` (single isomer, unassigned) [Compound 139-A, 4-(3-(3,4-difluoro-2-methoxyphenyl)-5-methyl-5-(trifluoromethyl)tetrahydrothiophene-2-carboxamido)picolinamide], the “PWT 50% value (g) Post-surgery, Preadministration” value (“PWT 50% value (g) Post-surgery” below) (incision pain model; 50 mg/kg group) was 0.22 ± 0.03 g, the “PWT 50% value (g) Pre-surgery” value (incision pain model; 50 mg/kg group) was 1.39 ± 0.31 g and the “PWT 50% value (g) 0.5 h” value (incision pain model; 50 mg/kg single dose) was 0.74 ± 0.3 g. For the same molecule, the “PWT 50% value (g) 2 h” value (incision pain model; 50 mg/kg single dose) was 1.05 ± 0.38 g, the “PWT 50% value (g) 4 h” value (incision pain model; 50 mg/kg single dose) was 0.74 ± 0.29 g and the “PWT 50% value (g) Post-surgery” value (incision pain model; 125 mg/kg group) was 0.22 ± 0.02 g. The “PWT 50% value (g) Pre-surgery” value (incision pain model; 125 mg/kg group) was 1.25 ± 0.31 g, the “PWT 50% value (g) 0.5 h” value (incision pain model; 125 mg/kg single dose) was 0.82 ± 0.33 g and the “PWT 50% value (g) 2 h” value (incision pain model; 125 mg/kg single dose) was 1.09 ± 0.32 g. For the same molecule, the “PWT 50% value (g) 4 h” value (incision pain model; 125 mg/kg single dose) was 0.87 ± 0.16 g, the “PWT 50% value (g) AUC0-8h” value (incision pain model; 125 mg/kg single dose) was 6.08 ± 1.2 g·h and the “PWT 50% value (g) Post-surgery” value ([1]; 50 mg/kg group) was 2.68 ± 1.05 g. For the same molecule, the “PWT 50% value (g) Pre-surgery” value ([1]; 50 mg/kg group) was 14.94 ± 2.38 g, the “PWT 50% value (g) Time 0.5 h” value ([1]; 50 mg/kg single dose) was 5.78 ± 2.76 g and the “PWT 50% value (g) Time 2 h” value ([1]; 50 mg/kg single dose) was 8.76 ± 2.47 g. The “PWT 50% value (g) Time 4 h” value ([1]; 50 mg/kg single dose) was 7.73 ± 4.32 g, the “PWT 50% value (g) Time 6 h” value ([1]; 50 mg/kg single dose) was 4.9 ± 1.61 g and the “PWT 50% value (g) Time 8 h” value ([1]; 50 mg/kg single dose) was 3.57 ± 1.44 g. The “PWT 50% value (g) AUC0-8h” value ([1]; 50 mg/kg single dose) was 50.59 ± 15.71 g, the “PWT 50% value (g) Post-surgery” value ([1]; 125 mg/kg group) was 2.68 ± 1 g and the “PWT 50% value (g) Pre-surgery” value ([1]; 125 mg/kg group) was 13.83 ± 3.18 g. The “PWT 50% value (g) Time 0.5 h” value ([1]; 125 mg/kg single dose) was 6.96 ± 3.34 g, the “PWT 50% value (g) Time 2 h” value ([1]; 125 mg/kg single dose) was 9.61 ± 3.73 g and the “PWT 50% value (g) Time 4 h” value ([1]; 125 mg/kg single dose) was 7.26 ± 3.19 g. The “PWT 50% value (g) Time 6 h” value ([1]; 125 mg/kg single dose) was 5.01 ± 1.63 g, the “PWT 50% value (g) Time 8 h” value ([1]; 125 mg/kg single dose) was 3.88 ± 1.67 g and the “PWT 50% value (g) AUC0-8h” value ([1]; 125 mg/kg single dose) was 52.87 ± 15.06 g. The dose-effect relationship ([1]; rat SNL model) was “relatively good dose-effect relationship” and the “differences compared with the model group” value ([1]; rat SNL model, all time points) was “significant differences compared with the model group at all time points”.
